Assay results published in patent US4348393A, “N-Aryl oxazolidinones, oxazolidinethiones, pyrrolidinones, pyrrolidines and thiazolidinones” (Delalande S.A., priority 1978, dated 1982).
Like-named read-outs stand apart in the source and are kept apart here.

What was measured:
[1] = tested on: generalized trembling caused by dl-5-hydroxytryptophane; test: Test A: potentiation in mice of generalized trembling caused by dl-5-hydroxytryptophane; type: in vivo; details: Mus musculus, po, read-out: Test A ED 50
Protocol: Test A: Potentiation in mice of generalized trembling caused by an interperitoneal injection (200 mg/kg) of dl-5-hydroxytryptophane, following the protocol described by C. GOURET and G. RAYNAUD in J. Pharmacol. (Paris), (1974), 5, 231.

[2] = tested on: ptosis observed one hour after reserpine; test: Test B: antagonism of reserpine-induced ptosis in mice; type: in vivo; details: Mus musculus, 1 h, po, antagonism of ptosis one hour after reserpine 2 mg/kg intravenous, read-out: Test B ED 50
Protocol: Test B: Antagonism with respect to the ptosis observed one hour after an intravenous injection (2 mg/kg) of reserpine given to mice, following the protocol described by C.

[3] = mice, potentiation of trembling by dl-5-hydroxytryptophane 200 mg/kg interperitoneal

Row | SMILES | ED50 [1, 3] [mg/kg] | ED50 [2] [mg/kg] | ED50 [1] [mg/kg]
1 | CCCCCCCCC(=O)OCC1CN(c2ccc(OCc3cccc(Cl)c3)cc2)C(=O)O1 (centres unmarked) [compound 35] | 19 | 6.5 | –
2 | CCCCC(=O)OCC1CN(c2ccc(OCCC#N)cc2)C(=O)O1 (centres unmarked) [compound 6] | 2.4 | 6 | –
3 | CC(C)C(=O)OCC1CN(c2ccc(OCC3CCCCC3)cc2)C(=O)O1 (centres unmarked) [compound 103] | 5 | 6 | –
4 | CN(C)CC1CN(c2ccc(OCc3cccc([N+](=O)[O-])c3)cc2)C(=O)O1 (centres unmarked) [compound 86] | – | 4.8 | 4.5
5 | N#CCCOc1ccc(N2CC(COC3CCCCC3)OC2=O)cc1 (centres unmarked) [compound 54] | 14 | 12.5 | –
6 | CCCCC(=O)OCC1CN(c2ccc(OCc3ccccc3)cc2)C(=O)O1 (centres unmarked) [compound 26] | 12.5 | 20 | –
7 | COCC1CN(c2ccc(OCc3ccc(C#N)cc3)cc2)C(=O)O1 (centres unmarked) [compound 159] | 5.2 | 4.8 | –
8 | CCCCC(=O)OCC1CN(c2ccc(OCc3cccc([N+](=O)[O-])c3)cc2)C(=O)O1 (centres unmarked) [compound 39] | 1.75 | 1.6 | –
9 | COCC1CN(c2ccc(OCc3ccc([N+](=O)[O-])cc3)cc2)C(=O)O1 (centres unmarked) [compound 165] | 6.8 | 4.7 | –
10 | CC(C)CCOCC1CN(c2ccc(OCc3cccc([N+](=O)[O-])c3)cc2)C(=O)O1 (centres unmarked) [compound 158] | 6 | 6 | –
11 | OCC1CN(c2ccc(OCc3ccc(F)cc3)cc2)C(=S)O1 (centres unmarked) [compound 96] | 4.7 | 3.6 | –
12 | COCC1CN(c2ccc(OCc3ccc(Cl)cc3)cc2)C(=O)O1 (centres unmarked) [compound 68] | 5 | 6.2 | –
13 | NCC1CN(c2ccc(OCc3ccccc3)cc2)C(=O)O1 (centres unmarked) [compound 80] | 20 | 25 | –
14 | COCC1CN(c2ccc(OCc3ccc(Cl)c(Cl)c3)cc2)C(=O)O1 (centres unmarked) [compound 164] | 3.4 | 3.4 | –
15 | O=C(OCC1CN(c2ccc(OCC3CCCCC3)cc2)C(=O)O1)C1CCCCC1 (centres unmarked) [compound 121] | 11 | 8 | –
16 | CCCCC(=O)OCC1CN(c2ccc(OCc3cccc(Cl)c3)cc2)C(=O)O1 (centres unmarked) [compound 33] | 9.4 | 4.5 | –
17 | CC(C)OCC1CN(c2ccc(OCCC#N)cc2)C(=O)O1 (centres unmarked) [compound 53] | 5 | 5.8 | –
18 | O=C(OCC1CN(c2ccc(OCC3CCCC3)cc2)C(=O)O1)C1CCCCC1 (centres unmarked) [compound 18] | 4 | 4.25 | –
19 | CCCCC(=O)OCC1CN(c2ccc(OCCC(C)C)cc2)C(=O)O1 (centres unmarked) [compound 128] | 7.2 | 4.8 | –
20 | CC(C)CCOc1ccc(N2CC(COC(=O)C(C)C)OC2=O)cc1 (centres unmarked) [compound 127] | 5 | 4.3 | –
21 | CCCOCC1CN(c2ccc(OCc3cccc([N+](=O)[O-])c3)cc2)C(=O)O1 (centres unmarked) [compound 70] | 0.8 | 0.6 | –
22 | CCCCOc1ccc(N2CC(COC(C)C)OC2=O)cc1 (centres unmarked) [compound 47, para-n-butyloxy phenyl-3 isopropyloxymethyl-5 oxazolidinone-2] | 18 | 36 | –
23 | COCC1CN(c2ccc(OCC3CCCCC3)cc2)C(=O)O1 (centres unmarked) [compound 55] | 0.6 | 1.1 | –
24 | CCC(=O)OCC1CN(c2ccc(OCc3cccc([N+](=O)[O-])c3)cc2)C(=O)O1 (centres unmarked) [compound 37] | 1.9 | 2 | –

Row | SMILES | ED50 [1, 3] [mg/kg] | ED50 [2] [mg/kg] | ED50 [1] [mg/kg]
25 | OCC1CN(c2ccc(OCc3ccc(Cl)cc3)cc2)C(=S)O1 (centres unmarked) [compound 95] | 50 | 35 | –
26 | CCCCCCCCC(=O)OCC1CN(c2ccc(OCCC(C)C)cc2)C(=O)O1 (centres unmarked) [compound 126] | 4.4 | 1.8 | –
27 | CC(=O)OCC1CN(c2ccc(OCc3cccc([N+](=O)[O-])c3)cc2)C(=S)O1 (centres unmarked) [compound 117] | 1.2 | 1.5 | –
28 | COCC1CN(c2ccc(OCc3cccc(Cl)c3)cc2)C(=O)O1 (centres unmarked) [compound 59] | 3.4 | 3.1 | –
29 | CC(=O)OCC1CN(c2ccc(OCc3ccccc3)cc2)C(=O)O1 (centres unmarked) [compound 23] | 12 | 12.5 | –
30 | CCCOCC1CN(c2ccc(OCC3CCCC3)cc2)C(=O)O1 (centres unmarked) [compound 143] | 12.5 | 12 | –
31 | COCOCC1CN(c2ccc(OCc3cccc([N+](=O)[O-])c3)cc2)C(=O)O1 (centres unmarked) [compound 73] | 0.6 | 0.8 | –
32 | CCCCOc1ccc(N2CC(COC3CCCCC3)OC2=O)cc1 (centres unmarked) [compound 48] | 50 | 50 | –
33 | COCC1CN(c2ccc(OCc3ccc(F)c(Cl)c3)cc2)C(=O)O1 (centres unmarked) [compound 163] | 1.15 | 8 | –
34 | COCC1CN(c2ccc(OCCCCC#N)cc2)C(=O)O1 (centres unmarked) [compound 112] | 0.1 | 0.15 | –
35 | NCC1CN(c2ccc(OCc3cccc([N+](=O)[O-])c3)cc2)C(=O)O1 (centres unmarked) [compound 84] | 3 | 1.3 | –
36 | CC(C)OCC1CN(c2ccc(OCc3ccccc3)cc2)C(=O)O1 (centres unmarked) [compound 58] | 50 | 8.8 | –
37 | CCCCCCCCC(=O)OCC1CN(c2ccc(OCc3cccc([N+](=O)[O-])c3)cc2)C(=O)O1 (centres unmarked) [compound 42] | 1.25 | 2 | –
38 | CC(=O)OCC1CN(c2ccc(OCc3cccc([N+](=O)[O-])c3)cc2)C(=O)O1 (centres unmarked) [compound 36, Para (meta-nitrobenzyloxy) phenyl-3 acetoxy-methyl-5 oxazolidinone-2] | 1.7 | 1.5 | –
39 | CCCCOc1ccc(N2CC(COCC)OC2=O)cc1 (centres unmarked) [compound 109] | 10 | 1 | –
40 | C=CCOCC1CN(c2ccc(OCc3cccc([N+](=O)[O-])c3)cc2)C(=O)O1 (centres unmarked) [compound 71] | 1 | 0.8 | –
41 | COCC1CN(c2ccc(OCCCCC#N)cc2)C(=S)O1 (centres unmarked) [compound 217] | 1 | 1 | –
42 | COCC1CN(c2ccc(OCc3cccc(C#N)c3)cc2)C(=O)O1 (centres unmarked) [compound 65] | 0.28 | 0.75 | –
43 | O=C(OCC1CN(c2ccc(OCc3cccc([N+](=O)[O-])c3)cc2)C(=O)O1)C1CCCCC1 (centres unmarked) [compound 41] | 6.2 | 4.5 | –
44 | CC(C)(C)C(=O)OCC1CN(c2ccc(OCC3CCCC3)cc2)C(=O)O1 (centres unmarked) [compound 17] | 4.8 | 3.6 | –
45 | CC(C)(C)C(=O)OCC1CN(c2ccc(OCc3ccccc3)cc2)C(=O)O1 (centres unmarked) [compound 27] | 25 | 44 | –
46 | CCCOCC1CN(c2ccc(OCc3ccccc3)cc2)C(=O)O1 (centres unmarked) [compound 152] | 18 | 15.5 | –
47 | CCCCOc1ccc(N2CC(COC(=O)C(C)(C)C)OC2=O)cc1 (centres unmarked) [compound 12] | 4.6 | 6 | –
48 | N#Cc1cccc(COc2ccc(N3CC(CO)OC3=S)cc2)c1 (centres unmarked) [compound 97] | 3.9 | 3.2 | –

Row | SMILES | ED50 [1, 3] [mg/kg] | ED50 [2] [mg/kg] | ED50 [1] [mg/kg]
49 | CCOCC1CN(c2ccc(OCc3ccccc3)cc2)C(=O)O1 (centres unmarked) [compound 154] | 19 | 17.5 | –
50 | CNCC1CN(c2ccc(OCCC(C)C)cc2)C(=O)O1 (centres unmarked) [compound 79] | 6.2 | 2 | –
51 | CCCOCC1CN(c2ccc(OCCC#N)cc2)C(=O)O1 (centres unmarked) [compound 145] | 8.5 | 12 | –
52 | OCC1CN(c2ccc(OCc3cccc(C(F)(F)F)c3)cc2)C(=S)O1 (centres unmarked) [compound 98] | 12.5 | 12.5 | –
53 | CC(=O)OCC1CN(c2ccc(OCC3CCCCC3)cc2)C(=S)O1 (centres unmarked) [compound 115] | 3.8 | 4.8 | –
54 | COCC1CN(c2cccc(C)c2)C(=O)O1 (centres unmarked) [compound 45] | 45 | 50 | –
55 | OCC1CN(c2ccc(OCc3cccc(F)c3)cc2)C(=S)O1 (centres unmarked) [compound 177] | 8 | 15.5 | –
56 | CCOCC1CN(c2ccc(OCCC#N)cc2)C(=O)O1 (centres unmarked) [compound 147] | 1.5 | 2.6 | –
57 | CCCCOc1ccc(N2CC(COC)OC2=O)cc1 (centres unmarked) [compound 46] | 1.5 | 2 | –
58 | O=C1OC(COC2CCCCC2)CN1c1ccc(OCC2CCCC2)cc1 (centres unmarked) [compound 51] | 27 | 50 | –
59 | CCCCCCCCC(=O)OCC1CN(c2ccc(OCC3CCCCC3)cc2)C(=O)O1 (centres unmarked) [compound 122] | 6.8 | 6.2 | –
60 | CCC(=O)OCC1CN(c2ccc(OCC#N)cc2)C(=O)O1 (centres unmarked) [compound 2] | 12.5 | 8 | –
61 | CCCCOc1ccc(N2CC(CO)OC2=S)cc1 (centres unmarked) [compound 89] | 12.5 | 12.5 | –
62 | CN(C)CC1CN(c2ccc(OCCC#N)cc2)C(=O)O1 (centres unmarked) [compound 171] | 19.5 | 25 | –
63 | CC(=O)OCC1CN(c2ccc(OCC#N)cc2)C(=O)O1 (centres unmarked) [compound 1] | 12.5 | 6.2 | –
64 | COCC1CN(c2ccc(OCC3CCC(=O)CC3)cc2)C(=O)O1 (centres unmarked) [compound 188] | 0.3 | 0.4 | –
65 | CC(C)(C)C(=O)OCC1CN(c2ccc(OCc3cccc(Cl)c3)cc2)C(=O)O1 (centres unmarked) [compound 34] | 7 | 7.5 | –
66 | CCCCCCCCC(=O)OCC1CN(c2ccc(OCc3cccc(C#N)c3)cc2)C(=O)O1 (centres unmarked) [compound 133] | 6 | 5.2 | –
67 | CC(C)CCOc1ccc(N2CC(COC(=O)C(C)(C)C)OC2=O)cc1 (centres unmarked) [compound 125] | 5 | 3.5 | –
68 | CNCC1CN(c2ccc(OCc3ccc(F)cc3)cc2)C(=O)O1 (centres unmarked) [compound 175] | 5.8 | 9.6 | –
69 | NCC1CN(c2ccc(OCc3ccc(F)cc3)cc2)C(=O)O1 (centres unmarked) [compound 176] | 4 | 4 | –
70 | CC(C)CCOc1ccc(N2CC(COC(=O)C3CCCCC3)OC2=O)cc1 (centres unmarked) [compound 129] | 7.5 | 12 | –
